Laboratory results published in PubChem BioAssay (NCI).
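Protocol summary: plate cells (96-well), add compound at 5 concentrations, incubate 48 h, interpolate endpoints linearly. TGI is the concentration that stops growth completely.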

Key:
Assay in all cases: NCI anticancer screen, dose series, 48 h
A549 NSCLC = system: A549 NSCLC
ACHN renal = system: ACHN renal
NCI-H460 lung = system: NCI-H460 lung
CAKI-1 renal = system: CAKI-1 renal
OVCAR-4 ovarian = system: OVCAR-4 ovarian
OVCAR-5 ovarian = system: OVCAR-5 ovarian
COLO 205 colon = system: COLO 205 colon
IGROV1 ovarian = system: IGROV1 ovarian
SNB-19 CNS = system: SNB-19 CNS
TK-10 renal = system: TK-10 renal
CCRF-CEM leukemia = system: CCRF-CEM leukemia
PC-3 prostate = system: PC-3 prostate
U251 CNS = system: U251 CNS
HCT-116 colon = system: HCT-116 colon
A498 renal = system: A498 renal
OVCAR-8 ovarian = system: OVCAR-8 ovarian
HCT-15 colon = system: HCT-15 colon
T-47D breast = system: T-47D breast
MCF7 breast = system: MCF7 breast
786-0 renal = system: 786-0 renal
M14 melanoma = system: M14 melanoma
OVCAR-3 ovarian = system: OVCAR-3 ovarian
EKVX NSCLC = system: EKVX NSCLC
HCC-2998 colon = system: HCC-2998 colon
UACC-257 melanoma = system: UACC-257 melanoma
SF-268 CNS = system: SF-268 CNS
UO-31 renal = system: UO-31 renal
HS 578T breast = system: HS 578T breast
MDA-N = system: MDA-N
NCI/ADR-RES ovarian = system: NCI/ADR-RES ovarian
SK-OV-3 ovarian = system: SK-OV-3 ovarian
LOX IMVI melanoma = system: LOX IMVI melanoma
MDA-MB-231 breast = system: MDA-MB-231 breast
NCI-H226 lung = system: NCI-H226 lung
NCI-H23 lung = system: NCI-H23 lung
SK-MEL-5 melanoma = system: SK-MEL-5 melanoma
MOLT-4 leukemia = system: MOLT-4 leukemia
SN12C renal = system: SN12C renal
SK-MEL-2 melanoma = system: SK-MEL-2 melanoma
DU-145 prostate = system: DU-145 prostate
RPMI-8226 leukemia = system: RPMI-8226 leukemia
UACC-62 melanoma = system: UACC-62 melanoma
NCI-H522 lung = system: NCI-H522 lung
SW-620 colon = system: SW-620 colon
K-562 leukemia = system: K-562 leukemia
HL-60(TB) leukemia = system: HL-60(TB) leukemia
SF-295 CNS = system: SF-295 CNS
BT-549 breast = system: BT-549 breast
HOP-62 NSCLC = system: HOP-62 NSCLC
KM12 colon = system: KM12 colon
SF-539 CNS = system: SF-539 CNS
HOP-92 NSCLC = system: HOP-92 NSCLC
MDA-MB-435 = system: MDA-MB-435
SR leukemia = system: SR leukemia
HT29 colon = system: HT29 colon
RXF 393 renal = system: RXF 393 renal

Measured: TGI

CC1=C(C(=O)NNC(=O)C[N+](C)(C)C)CC(C(=O)NNC(=O)C[N+](C)(C)C)=C(C)N1
> 100 µM: A549 NSCLC | ACHN renal | NCI-H460 lung | CAKI-1 renal | OVCAR-4 ovarian | OVCAR-5 ovarian | COLO 205 colon | IGROV1 ovarian | SNB-19 CNS | TK-10 renal | PC-3 prostate | U251 CNS | HCT-116 colon | A498 renal | OVCAR-8 ovarian | HCT-15 colon | T-47D breast | MCF7 breast | 786-0 renal | M14 melanoma | OVCAR-3 ovarian | EKVX NSCLC | HCC-2998 colon | UACC-257 melanoma | SF-268 CNS | UO-31 renal | HS 578T breast | MDA-N | NCI/ADR-RES ovarian | SK-OV-3 ovarian | LOX IMVI melanoma | MDA-MB-231 breast | NCI-H226 lung | NCI-H23 lung | SK-MEL-5 melanoma | MOLT-4 leukemia | SN12C renal | SK-MEL-2 melanoma | DU-145 prostate | RPMI-8226 leukemia | UACC-62 melanoma | NCI-H522 lung | SW-620 colon | K-562 leukemia | HL-60(TB) leukemia | SF-295 CNS | BT-549 breast | HOP-62 NSCLC | KM12 colon | SF-539 CNS | HOP-92 NSCLC | MDA-MB-435 | SR leukemia | HT29 colon | RXF 393 renal
94 µM: CCRF-CEM leukemia
